Measured values reported in article PMC8401933 (Molecules, 2021).

Key:
Experiment in all cases: KINOMEscan binding
BMPR2 = target: T1, BMPR2 (Homo sapiens, UniProt Q13873); conditions: read-out: Percent Control
T1 construct: purchased Eurofins DiscoverX KINOMEscan

[1] = target: T2, JAK2(JH1domain-catalytic) (Homo sapiens, UniProt O60674); conditions: read-out: Percent Control
T2 construct: JAK2(JH1domain-catalytic); purchased Eurofins DiscoverX KINOMEscan

PIK3CA(E545A) = target: T3, PIK3CA(E545A) (Homo sapiens, UniProt P42336, E545A); conditions: read-out: Percent Control
T3 construct: purchased Eurofins DiscoverX KINOMEscan

ZAK = target: T4, ZAK (Homo sapiens, UniProt Q9NYL2); conditions: read-out: Percent Control
T4 construct: purchased Eurofins DiscoverX KINOMEscan

FLT4 = target: T5, FLT4 (Homo sapiens, UniProt P35916); conditions: read-out: Percent Control
T5 construct: purchased Eurofins DiscoverX KINOMEscan

PLK1 = target: T6, PLK1 (Homo sapiens, UniProt P53350); conditions: read-out: Percent Control
T6 construct: purchased Eurofins DiscoverX KINOMEscan

PDPK1 = target: T7, PDPK1 (Homo sapiens, UniProt O15530); conditions: read-out: Percent Control
T7 construct: purchased Eurofins DiscoverX KINOMEscan

KIT(V559D) = target: T8, KIT(V559D) (Homo sapiens, UniProt P10721, V559D); conditions: read-out: Percent Control
T8 construct: purchased Eurofins DiscoverX KINOMEscan

ERK1 = target: T9, ERK1 (Homo sapiens, UniProt P27361); conditions: read-out: Percent Control
T9 construct: purchased Eurofins DiscoverX KINOMEscan

VPS34 = target: T10, VPS34 (Homo sapiens, UniProt Q8NEB9); conditions: read-out: Percent Control
T10 construct: purchased Eurofins DiscoverX KINOMEscan

ABL2 = target: T11, ABL2 (Homo sapiens, UniProt P42684); conditions: read-out: Percent Control
T11 construct: purchased Eurofins DiscoverX KINOMEscan

CSF1R-autoinhibited = target: T12, CSF1R-autoinhibited (Homo sapiens, UniProt P07333); conditions: read-out: Percent Control
T12 construct: purchased Eurofins DiscoverX KINOMEscan

INSRR = target: T13, INSRR (Homo sapiens, UniProt P14616); conditions: read-out: Percent Control
T13 construct: purchased Eurofins DiscoverX KINOMEscan

FLT3(ITD,F691L) = system: FLT3(ITD,F691L); parameters: species or system human; conditions: 10 μM
RET(M918T) = target: T14, RET(M918T) (Homo sapiens, UniProt P07949, M918T); conditions: read-out: Percent Control
T14 construct: purchased Eurofins DiscoverX KINOMEscan

CAMK2A = target: T15, CAMK2A (Homo sapiens, UniProt Q9UQM7); conditions: read-out: Percent Control
T15 construct: purchased Eurofins DiscoverX KINOMEscan

PIK3C2G = target: T16, PIK3C2G (Homo sapiens, UniProt O75747); conditions: read-out: Percent Control
T16 construct: purchased Eurofins DiscoverX KINOMEscan

TNIK = target: T17, TNIK (Homo sapiens, UniProt Q9UKE5); conditions: read-out: Percent Control
T17 construct: purchased Eurofins DiscoverX KINOMEscan

DCAMKL3 = target: T18, DCAMKL3 (Homo sapiens, UniProt Q9C098); conditions: read-out: Percent Control
T18 construct: purchased Eurofins DiscoverX KINOMEscan

EPHA3 = target: T19, EPHA3 (Homo sapiens, UniProt P29320); conditions: read-out: Percent Control
T19 construct: purchased Eurofins DiscoverX KINOMEscan

ERK8 = target: T20, ERK8 (Homo sapiens, UniProt Q8TD08); conditions: read-out: Percent Control
T20 construct: purchased Eurofins DiscoverX KINOMEscan

[2] = target: T21, JAK3(JH1domain-catalytic) (Homo sapiens, UniProt P52333); conditions: read-out: Percent Control
T21 construct: JAK3(JH1domain-catalytic); purchased Eurofins DiscoverX KINOMEscan

PRKD3 = target: T22, PRKD3 (Homo sapiens, UniProt O94806); conditions: read-out: Percent Control
T22 construct: purchased Eurofins DiscoverX KINOMEscan

ROS1 = target: T23, ROS1 (Homo sapiens, UniProt P08922); conditions: read-out: Percent Control
T23 construct: purchased Eurofins DiscoverX KINOMEscan

TLK2 = target: T24, TLK2 (Homo sapiens, UniProt Q86UE8); conditions: read-out: Percent Control
T24 construct: purchased Eurofins DiscoverX KINOMEscan

NIK = target: T25, NIK (Homo sapiens, UniProt Q99558); conditions: read-out: Percent Control
T25 construct: purchased Eurofins DiscoverX KINOMEscan

p38-alpha = target: T26, p38-alpha (Homo sapiens, UniProt Q16539); conditions: read-out: Percent Control
T26 construct: purchased Eurofins DiscoverX KINOMEscan

PIK3CD = target: T27, PIK3CD (Homo sapiens, UniProt O00329); conditions: read-out: Percent Control
T27 construct: purchased Eurofins DiscoverX KINOMEscan

TIE1 = target: T28, TIE1 (Homo sapiens, UniProt P35590); conditions: read-out: Percent Control
T28 construct: purchased Eurofins DiscoverX KINOMEscan

YSK4 = target: T29, YSK4 (Homo sapiens, UniProt Q56UN5); conditions: read-out: Percent Control
T29 construct: purchased Eurofins DiscoverX KINOMEscan

MARK4 = target: T30, MARK4 (Homo sapiens, UniProt Q96L34); conditions: read-out: Percent Control
T30 construct: purchased Eurofins DiscoverX KINOMEscan

FES = target: T31, FES (Homo sapiens, UniProt P07332); conditions: read-out: Percent Control
T31 construct: purchased Eurofins DiscoverX KINOMEscan

QSK = target: T32, QSK (Homo sapiens, UniProt Q9Y2K2); conditions: read-out: Percent Control
T32 construct: purchased Eurofins DiscoverX KINOMEscan

FLT3(N841I) = target: T33, FLT3(N841I) (Homo sapiens, UniProt P36888, N841I); conditions: read-out: Percent Control
T33 construct: purchased Eurofins DiscoverX KINOMEscan

LOK = target: T34, LOK (Homo sapiens, UniProt O94804); conditions: read-out: Percent Control
T34 construct: purchased Eurofins DiscoverX KINOMEscan

FYN = target: T35, FYN (Homo sapiens, UniProt P06241); conditions: read-out: Percent Control
T35 construct: purchased Eurofins DiscoverX KINOMEscan

[3] = target: T36, RSK1(Kin.Dom.2-C-terminal) (Homo sapiens, UniProt Q15418); conditions: read-out: Percent Control
T36 construct: RSK1(Kin.Dom.2-C-terminal); purchased Eurofins DiscoverX KINOMEscan

PLK3 = target: T37, PLK3 (Homo sapiens, UniProt Q9H4B4); conditions: read-out: Percent Control
T37 construct: purchased Eurofins DiscoverX KINOMEscan

EPHB3 = target: T38, EPHB3 (Homo sapiens, UniProt P54753); conditions: read-out: Percent Control
T38 construct: purchased Eurofins DiscoverX KINOMEscan

HUNK = target: T39, HUNK (Homo sapiens, UniProt P57058); conditions: read-out: Percent Control
T39 construct: purchased Eurofins DiscoverX KINOMEscan

CHEK2 = target: T40, CHEK2 (Homo sapiens, UniProt O96017); conditions: read-out: Percent Control
T40 construct: purchased Eurofins DiscoverX KINOMEscan

ACVRL1 = target: T41, ACVRL1 (Homo sapiens, UniProt P37023); conditions: read-out: Percent Control
T41 construct: purchased Eurofins DiscoverX KINOMEscan

MTOR = target: T42, MTOR (Homo sapiens, UniProt P42345); conditions: read-out: Percent Control
T42 construct: purchased Eurofins DiscoverX KINOMEscan

T17 sequence (Q9UKE5 whole entry): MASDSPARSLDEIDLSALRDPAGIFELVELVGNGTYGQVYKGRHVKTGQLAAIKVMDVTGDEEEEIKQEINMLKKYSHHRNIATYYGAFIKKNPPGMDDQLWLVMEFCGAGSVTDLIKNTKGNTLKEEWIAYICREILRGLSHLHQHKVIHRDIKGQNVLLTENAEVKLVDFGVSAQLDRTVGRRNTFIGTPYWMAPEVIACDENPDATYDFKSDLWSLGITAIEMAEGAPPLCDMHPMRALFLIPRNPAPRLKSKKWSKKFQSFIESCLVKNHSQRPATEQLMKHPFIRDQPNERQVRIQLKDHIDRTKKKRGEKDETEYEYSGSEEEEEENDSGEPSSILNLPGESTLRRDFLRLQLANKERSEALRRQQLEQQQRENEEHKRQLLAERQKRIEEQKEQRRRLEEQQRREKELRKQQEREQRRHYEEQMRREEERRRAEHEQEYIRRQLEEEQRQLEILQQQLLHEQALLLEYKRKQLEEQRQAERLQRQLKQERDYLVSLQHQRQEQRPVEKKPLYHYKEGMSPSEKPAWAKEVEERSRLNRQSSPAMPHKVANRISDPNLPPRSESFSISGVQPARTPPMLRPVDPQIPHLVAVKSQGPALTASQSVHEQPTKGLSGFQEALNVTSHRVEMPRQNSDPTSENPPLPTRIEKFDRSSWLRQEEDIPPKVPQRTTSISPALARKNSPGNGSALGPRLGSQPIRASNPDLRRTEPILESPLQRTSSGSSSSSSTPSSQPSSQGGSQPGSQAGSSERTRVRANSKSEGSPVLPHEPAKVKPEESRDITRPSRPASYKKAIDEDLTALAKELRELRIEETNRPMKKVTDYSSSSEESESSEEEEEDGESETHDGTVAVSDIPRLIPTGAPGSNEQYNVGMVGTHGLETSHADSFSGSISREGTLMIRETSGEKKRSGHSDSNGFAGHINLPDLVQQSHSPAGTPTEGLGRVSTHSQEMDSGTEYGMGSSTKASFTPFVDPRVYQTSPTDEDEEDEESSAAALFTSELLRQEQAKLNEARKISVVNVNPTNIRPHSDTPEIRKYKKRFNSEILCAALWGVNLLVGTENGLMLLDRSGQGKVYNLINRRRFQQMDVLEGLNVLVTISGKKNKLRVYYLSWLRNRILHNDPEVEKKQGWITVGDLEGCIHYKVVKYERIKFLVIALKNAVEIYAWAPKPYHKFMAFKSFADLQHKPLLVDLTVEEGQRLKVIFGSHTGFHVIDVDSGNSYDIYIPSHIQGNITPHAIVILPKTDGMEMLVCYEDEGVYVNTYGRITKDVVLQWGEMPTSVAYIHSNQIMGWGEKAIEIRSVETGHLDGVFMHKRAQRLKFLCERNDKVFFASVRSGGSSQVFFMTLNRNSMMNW
T36 sequence (Q15418 392-735 limits assumed): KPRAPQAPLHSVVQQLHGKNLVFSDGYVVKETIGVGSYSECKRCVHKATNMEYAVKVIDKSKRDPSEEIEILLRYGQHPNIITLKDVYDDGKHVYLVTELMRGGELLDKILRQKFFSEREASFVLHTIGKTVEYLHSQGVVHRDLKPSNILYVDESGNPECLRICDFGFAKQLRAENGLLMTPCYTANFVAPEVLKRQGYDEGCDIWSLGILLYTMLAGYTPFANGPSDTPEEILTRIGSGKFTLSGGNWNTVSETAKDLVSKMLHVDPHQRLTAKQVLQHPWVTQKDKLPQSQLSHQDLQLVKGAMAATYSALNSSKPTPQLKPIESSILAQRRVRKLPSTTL
T23 sequence (P08922 28-2347): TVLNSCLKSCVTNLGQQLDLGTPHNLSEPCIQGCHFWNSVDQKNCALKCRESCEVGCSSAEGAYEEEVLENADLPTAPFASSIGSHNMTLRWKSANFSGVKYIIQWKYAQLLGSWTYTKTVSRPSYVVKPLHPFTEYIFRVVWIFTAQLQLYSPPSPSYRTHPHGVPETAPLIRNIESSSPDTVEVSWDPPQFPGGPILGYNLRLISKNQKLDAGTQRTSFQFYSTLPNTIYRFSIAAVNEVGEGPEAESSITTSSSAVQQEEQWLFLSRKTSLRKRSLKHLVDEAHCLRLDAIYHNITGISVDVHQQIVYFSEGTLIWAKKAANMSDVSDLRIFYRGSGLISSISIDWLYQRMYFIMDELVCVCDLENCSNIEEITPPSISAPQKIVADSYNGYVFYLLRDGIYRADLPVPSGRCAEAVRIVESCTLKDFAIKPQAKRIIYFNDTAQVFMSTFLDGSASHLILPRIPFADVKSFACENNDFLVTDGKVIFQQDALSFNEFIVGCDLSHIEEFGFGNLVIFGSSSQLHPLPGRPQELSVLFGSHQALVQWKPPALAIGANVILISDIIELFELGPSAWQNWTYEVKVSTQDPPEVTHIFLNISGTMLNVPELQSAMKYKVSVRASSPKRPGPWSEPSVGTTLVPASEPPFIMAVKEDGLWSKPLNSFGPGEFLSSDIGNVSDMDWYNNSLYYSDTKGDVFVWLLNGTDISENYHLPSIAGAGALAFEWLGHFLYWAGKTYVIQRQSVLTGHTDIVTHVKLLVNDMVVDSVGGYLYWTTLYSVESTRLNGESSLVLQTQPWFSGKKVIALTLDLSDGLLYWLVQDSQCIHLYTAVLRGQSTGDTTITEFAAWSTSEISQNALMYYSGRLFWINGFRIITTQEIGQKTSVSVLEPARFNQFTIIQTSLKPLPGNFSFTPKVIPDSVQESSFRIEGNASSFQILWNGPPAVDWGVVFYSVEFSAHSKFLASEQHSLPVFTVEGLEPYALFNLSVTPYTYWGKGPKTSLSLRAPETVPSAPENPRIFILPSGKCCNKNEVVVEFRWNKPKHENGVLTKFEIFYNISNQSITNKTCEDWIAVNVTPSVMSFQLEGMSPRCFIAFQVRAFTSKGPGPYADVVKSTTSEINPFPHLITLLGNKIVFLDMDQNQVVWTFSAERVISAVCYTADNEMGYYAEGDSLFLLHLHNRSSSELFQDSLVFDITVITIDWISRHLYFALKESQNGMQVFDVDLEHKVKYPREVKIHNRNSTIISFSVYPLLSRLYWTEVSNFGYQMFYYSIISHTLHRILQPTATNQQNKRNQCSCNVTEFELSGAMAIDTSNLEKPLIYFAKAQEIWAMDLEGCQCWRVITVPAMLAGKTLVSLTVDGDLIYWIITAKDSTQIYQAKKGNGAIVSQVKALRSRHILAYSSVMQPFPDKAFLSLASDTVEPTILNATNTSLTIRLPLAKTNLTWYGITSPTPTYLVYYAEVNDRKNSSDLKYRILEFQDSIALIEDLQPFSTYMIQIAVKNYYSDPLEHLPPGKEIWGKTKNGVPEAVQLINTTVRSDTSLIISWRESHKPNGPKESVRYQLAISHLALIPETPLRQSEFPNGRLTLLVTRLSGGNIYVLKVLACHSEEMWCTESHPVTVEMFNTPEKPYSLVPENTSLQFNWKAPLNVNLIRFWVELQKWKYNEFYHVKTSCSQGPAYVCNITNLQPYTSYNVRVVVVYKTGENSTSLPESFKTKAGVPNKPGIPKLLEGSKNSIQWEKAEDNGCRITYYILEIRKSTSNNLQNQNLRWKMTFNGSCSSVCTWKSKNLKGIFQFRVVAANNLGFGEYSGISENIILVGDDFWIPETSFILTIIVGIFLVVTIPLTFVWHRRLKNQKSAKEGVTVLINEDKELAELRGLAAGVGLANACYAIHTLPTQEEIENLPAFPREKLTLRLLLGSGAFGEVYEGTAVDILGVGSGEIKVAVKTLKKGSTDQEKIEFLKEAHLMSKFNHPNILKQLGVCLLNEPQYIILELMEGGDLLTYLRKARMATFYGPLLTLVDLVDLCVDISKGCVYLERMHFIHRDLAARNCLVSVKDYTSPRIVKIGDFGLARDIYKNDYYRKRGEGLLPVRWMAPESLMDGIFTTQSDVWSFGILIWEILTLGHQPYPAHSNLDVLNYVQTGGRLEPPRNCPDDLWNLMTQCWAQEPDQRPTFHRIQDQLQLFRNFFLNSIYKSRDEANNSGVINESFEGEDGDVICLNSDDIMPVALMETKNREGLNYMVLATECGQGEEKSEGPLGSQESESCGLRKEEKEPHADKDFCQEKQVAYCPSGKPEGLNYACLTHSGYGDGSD
T7 sequence (O15530 whole entry): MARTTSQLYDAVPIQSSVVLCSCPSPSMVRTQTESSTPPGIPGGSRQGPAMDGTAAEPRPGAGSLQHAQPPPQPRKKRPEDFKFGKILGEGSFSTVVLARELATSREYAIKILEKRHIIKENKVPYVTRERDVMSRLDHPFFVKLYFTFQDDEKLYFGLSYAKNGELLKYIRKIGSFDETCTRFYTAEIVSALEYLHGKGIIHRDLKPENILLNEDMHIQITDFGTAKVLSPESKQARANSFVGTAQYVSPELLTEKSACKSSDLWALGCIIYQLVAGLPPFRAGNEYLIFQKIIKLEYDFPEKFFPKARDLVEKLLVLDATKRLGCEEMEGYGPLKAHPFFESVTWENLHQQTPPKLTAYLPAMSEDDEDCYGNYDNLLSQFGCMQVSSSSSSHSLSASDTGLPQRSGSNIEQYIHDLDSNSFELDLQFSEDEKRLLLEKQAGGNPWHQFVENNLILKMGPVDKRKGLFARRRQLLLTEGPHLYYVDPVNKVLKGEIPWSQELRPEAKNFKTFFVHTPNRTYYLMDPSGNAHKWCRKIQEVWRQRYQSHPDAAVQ
T21 sequence (P52333 781-1124 limits assumed): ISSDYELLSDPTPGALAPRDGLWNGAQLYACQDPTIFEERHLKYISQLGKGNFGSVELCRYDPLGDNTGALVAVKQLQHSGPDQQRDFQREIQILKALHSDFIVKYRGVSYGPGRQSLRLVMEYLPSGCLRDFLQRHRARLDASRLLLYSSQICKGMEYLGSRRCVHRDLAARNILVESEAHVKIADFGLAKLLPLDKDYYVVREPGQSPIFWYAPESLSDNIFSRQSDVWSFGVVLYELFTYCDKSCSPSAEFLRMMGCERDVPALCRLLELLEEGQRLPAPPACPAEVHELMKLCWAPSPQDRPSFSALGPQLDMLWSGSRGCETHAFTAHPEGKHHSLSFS

`CC(C)NC(=O)COc1cccc(-c2nc(Nc3ccc4[nH]ncc4c3)c3ccccc3n2)c1` [KD025, 2-(3-(4-((1H-indazol-5-yl)amino)quinazolin-2-yl)phenoxy)-N-isopropylacetamide] showed a remaining binding at 10 µM (BMPR2) of 72%, a remaining binding at 10 µM [1] of 51% and a remaining binding at 10 µM (PIK3CA(E545A)) of 65%. The remaining binding at 10 µM (ZAK) was 77%, the remaining binding at 10 µM (FLT4) was 86% and the remaining binding at 10 µM (PLK1) was 100%. It also gave a remaining binding at 10 µM (PDPK1) of 70%, a remaining binding at 10 µM (KIT(V559D)) of 72% and a remaining binding at 10 µM (ERK1) of 63%. It also gave a remaining binding at 10 µM (VPS34) of 27%, a remaining binding at 10 µM (ABL2) of 92% and a remaining binding at 10 µM (CSF1R-autoinhibited) of 91%. For the same molecule, the remaining binding at 10 µM (INSRR) was 83%, the “Percent Control” value (FLT3(ITD,F691L)) was 52% and the remaining binding at 10 µM (RET(M918T)) was 66%. For the same molecule, the remaining binding at 10 µM (CAMK2A) was 87%, the remaining binding at 10 µM (PIK3C2G) was 58% and the remaining binding at 10 µM (TNIK) was 100%. It also gave a remaining binding at 10 µM (DCAMKL3) of 64%, a remaining binding at 10 µM (EPHA3) of 75% and a remaining binding at 10 µM (ERK8) of 93%. The remaining binding at 10 µM [2] was 94%, the remaining binding at 10 µM (PRKD3) was 100% and the remaining binding at 10 µM (ROS1) was 79%. The remaining binding at 10 µM (TLK2) was 100%, the remaining binding at 10 µM (NIK) was 84% and the remaining binding at 10 µM (p38-alpha) was 100%. For the same molecule, the remaining binding at 10 µM (PIK3CD) was 41%, the remaining binding at 10 µM (TIE1) was 63% and the remaining binding at 10 µM (YSK4) was 66%. It also gave a remaining binding at 10 µM (MARK4) of 66%, a remaining binding at 10 µM (FES) of 94% and a remaining binding at 10 µM (QSK) of 88%. The remaining binding at 10 µM (FLT3(N841I)) was 19%, the remaining binding at 10 µM (LOK) was 9.8% and the remaining binding at 10 µM (FYN) was 61%. The remaining binding at 10 µM [3] was 100%, the remaining binding at 10 µM (PLK3) was 72% and the remaining binding at 10 µM (EPHB3) was 99%. For the same molecule, the remaining binding at 10 µM (HUNK) was 100%, the remaining binding at 10 µM (CHEK2) was 99% and the remaining binding at 10 µM (ACVRL1) was 76%. For the same molecule, the remaining binding at 10 µM (MTOR) was 92%.
